What all share (format): cell-based
Settings in all cases: 20 hours

One experiment addresses T1, JMJD2A (KDM4A) (Homo sapiens, UniProt O75164).
T1 construct: Full length; host or cells: U2OS
T1 sequence (O75164 1-1064): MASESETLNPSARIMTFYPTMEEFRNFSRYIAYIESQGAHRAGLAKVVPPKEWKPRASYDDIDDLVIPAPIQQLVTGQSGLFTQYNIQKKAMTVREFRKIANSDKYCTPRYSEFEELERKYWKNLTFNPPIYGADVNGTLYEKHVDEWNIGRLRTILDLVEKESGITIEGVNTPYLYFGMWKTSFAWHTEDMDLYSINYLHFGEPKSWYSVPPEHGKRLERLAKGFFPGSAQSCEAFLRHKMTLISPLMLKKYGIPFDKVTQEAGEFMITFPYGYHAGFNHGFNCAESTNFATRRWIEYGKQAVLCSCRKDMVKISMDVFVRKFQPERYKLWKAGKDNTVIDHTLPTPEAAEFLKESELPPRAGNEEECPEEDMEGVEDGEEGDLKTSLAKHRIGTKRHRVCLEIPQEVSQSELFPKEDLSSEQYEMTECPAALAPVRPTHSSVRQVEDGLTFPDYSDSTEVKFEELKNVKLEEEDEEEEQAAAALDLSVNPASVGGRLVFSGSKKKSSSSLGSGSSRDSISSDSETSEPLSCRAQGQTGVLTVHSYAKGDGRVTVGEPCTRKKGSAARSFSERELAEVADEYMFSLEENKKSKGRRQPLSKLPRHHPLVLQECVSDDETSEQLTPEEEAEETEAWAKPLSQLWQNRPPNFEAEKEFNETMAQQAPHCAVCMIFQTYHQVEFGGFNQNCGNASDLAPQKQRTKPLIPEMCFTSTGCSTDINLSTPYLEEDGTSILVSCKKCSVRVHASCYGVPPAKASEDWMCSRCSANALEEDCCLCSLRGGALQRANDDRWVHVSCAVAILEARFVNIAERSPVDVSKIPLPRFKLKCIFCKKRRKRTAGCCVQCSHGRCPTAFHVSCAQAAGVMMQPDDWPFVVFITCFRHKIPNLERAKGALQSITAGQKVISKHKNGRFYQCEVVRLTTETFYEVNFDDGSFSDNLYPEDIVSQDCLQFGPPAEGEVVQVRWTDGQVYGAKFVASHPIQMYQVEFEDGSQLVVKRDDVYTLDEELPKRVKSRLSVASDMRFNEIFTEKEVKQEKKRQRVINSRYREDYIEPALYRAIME
The experiment is described as follows: Immunofluorescence assay in U2OS cells transfected with pCMVHA JMJD2A (H3K9me3 mark). Here is the method: (§1) U2OS cells were seeded 24 hours before transfection. Transfection was performed with Fugene HD transfection reagent as recommended by the manufacturer. 6 hours after transfection, the cells were harvested and seeded into multi well plates into media containing compound. The media used was DMEM containing 5% FBS and pen/strep. 20 hours after incubation of cells with compounds, the cells were washed once in PBS, harvested by fixation with formaldehyde 4% aqueous solution, and washed 2 times in PBS. Subsequently, the cells were permeabilized in PBS with 0.2% Triton X-100 for 10 min at room temperature. Blocking was performed in PBS with 0.2% Triton X-100 and 5% FBS for 45 min at room temperature. The cells were incubated with primary antibodies diluted 1 μg/ml in blocking solution over night at 4° C. The primary antibodies used in the assays were HA.11 (Covance, MMS-101P) and the antibody detecting the mark specified in the Table 6 below. After incubation with primary antibodies, the cells were washed 3 times with PBS, incubated with secondary antibodies diluted 1:1000 (Alexa fluor 594 goat anti rabbit IgG, Invitrogen, A11012; Alexa flour 488 donkey anti mouse IgG, Invitrogen, A21202) and Hoechst, 20 μg/ml (Sigma, 33342) in blocking solution, and washed again 3 times with PBS. Finally, PBS was added and high throughput imaging and analysis were performed by an IN Cell Analyzer 1000 (GE Healthcare). The robot software analyzed individual cells and divided these into HA^+ (transfected cells) and HA^− (non-transfected cells). The IC50 values in Table 7 below were based on an average measure of the staining of the mark specified in the Table 6 below in the transfected cells.

The target in the next experiment is T2, GASC1 (KDM4C) (Homo sapiens, UniProt Q9H3R0).
T2 construct: Full length; host or cells: U2OS
T2 sequence (Q9H3R0 1-1056): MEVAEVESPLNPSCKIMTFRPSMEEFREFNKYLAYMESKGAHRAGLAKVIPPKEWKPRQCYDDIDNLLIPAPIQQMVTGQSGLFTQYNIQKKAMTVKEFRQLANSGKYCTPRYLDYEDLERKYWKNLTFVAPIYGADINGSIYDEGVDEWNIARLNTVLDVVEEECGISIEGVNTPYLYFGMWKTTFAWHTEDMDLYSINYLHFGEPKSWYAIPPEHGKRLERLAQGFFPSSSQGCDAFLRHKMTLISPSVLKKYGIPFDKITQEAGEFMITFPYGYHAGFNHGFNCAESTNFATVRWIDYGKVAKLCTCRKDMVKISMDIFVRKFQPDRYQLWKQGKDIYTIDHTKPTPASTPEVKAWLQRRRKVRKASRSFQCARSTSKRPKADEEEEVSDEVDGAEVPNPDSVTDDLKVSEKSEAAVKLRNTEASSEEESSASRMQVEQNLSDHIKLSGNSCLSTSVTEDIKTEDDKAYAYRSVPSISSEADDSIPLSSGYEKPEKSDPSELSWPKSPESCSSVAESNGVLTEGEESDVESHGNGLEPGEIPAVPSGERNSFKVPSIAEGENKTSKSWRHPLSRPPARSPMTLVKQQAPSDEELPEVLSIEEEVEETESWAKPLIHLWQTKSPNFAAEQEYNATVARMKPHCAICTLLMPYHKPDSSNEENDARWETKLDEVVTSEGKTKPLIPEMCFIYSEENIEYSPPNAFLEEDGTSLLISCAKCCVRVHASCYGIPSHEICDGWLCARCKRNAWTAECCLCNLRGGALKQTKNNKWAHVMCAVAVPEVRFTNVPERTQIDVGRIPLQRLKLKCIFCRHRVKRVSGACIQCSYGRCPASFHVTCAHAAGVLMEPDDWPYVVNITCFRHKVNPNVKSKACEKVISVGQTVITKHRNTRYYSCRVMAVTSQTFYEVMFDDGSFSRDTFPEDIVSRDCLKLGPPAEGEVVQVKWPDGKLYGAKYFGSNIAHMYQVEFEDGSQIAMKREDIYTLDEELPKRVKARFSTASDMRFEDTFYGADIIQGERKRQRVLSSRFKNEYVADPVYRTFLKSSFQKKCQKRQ
Put plainly: Immunofluorescence assay in U2OS cells transfected with pCMVHA JMJD2C (H3K9me3 mark). The procedure: as §1

Another experiment addresses T3, PLU1 (KDM5B) (Homo sapiens, UniProt Q9UGL1).
T3 construct: (1-752); host or cells: U2OS
T3 sequence (Q9UGL1 1-752): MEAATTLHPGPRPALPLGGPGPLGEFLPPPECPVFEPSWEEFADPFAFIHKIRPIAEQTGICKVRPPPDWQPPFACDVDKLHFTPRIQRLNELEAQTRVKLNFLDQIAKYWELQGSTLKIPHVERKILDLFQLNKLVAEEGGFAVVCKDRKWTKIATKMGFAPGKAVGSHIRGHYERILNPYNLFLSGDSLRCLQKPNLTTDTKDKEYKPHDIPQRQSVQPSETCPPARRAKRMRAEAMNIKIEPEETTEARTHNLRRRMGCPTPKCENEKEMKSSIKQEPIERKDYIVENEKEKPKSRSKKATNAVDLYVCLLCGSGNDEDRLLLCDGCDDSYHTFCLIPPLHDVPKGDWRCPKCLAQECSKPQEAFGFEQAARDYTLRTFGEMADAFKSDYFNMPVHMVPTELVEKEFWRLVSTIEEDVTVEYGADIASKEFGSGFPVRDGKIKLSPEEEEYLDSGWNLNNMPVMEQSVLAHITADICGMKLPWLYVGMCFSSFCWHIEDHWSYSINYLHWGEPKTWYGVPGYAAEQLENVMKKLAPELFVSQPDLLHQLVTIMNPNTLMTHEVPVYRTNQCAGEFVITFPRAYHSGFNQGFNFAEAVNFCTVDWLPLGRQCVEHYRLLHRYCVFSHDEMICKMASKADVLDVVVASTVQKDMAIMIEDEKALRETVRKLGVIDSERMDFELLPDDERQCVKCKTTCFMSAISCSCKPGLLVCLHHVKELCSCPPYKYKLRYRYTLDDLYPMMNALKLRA
The experiment is described as follows: Immunofluorescence assay in U2OS cells transfected with pCMVHA PLU1 (H3K4me2 mark). In a few lines:
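U2OS cells transiently expressing HA-tagged demethylase, exposed to compound 6 h post-transfection for 20 h in DMEM/5% FBS. Cells fixed, then immunostained for HA and the histone methyl mark and imaged by high-content analysis. IC50 from mean mark staining in HA-positive transfected cells.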

For orientation: IC50 means the concentration needed to halve the response being measured.

Bounds are passed on as bounds.

As for `CCCCCCCCCCCCCCCC(=O)OCC(COC(=O)CCCCCCCCCCCCCCC)OC(=O)c1ccnc(CNCC(=O)N(CC)CCN(C)C)c1` [drawing 334, 2-(2-{[({[2-(dimethylamino)ethyl](ethyl)carbamoyl}methyl)amino]methyl}pyridine-4-carbonyloxy)-3-(hexadecanoyloxy)propyl hexadecanoate], the IC50 at JMJD2A (KDM4A) lay in the range of 1 to 50 µM.
On to `CSCCNCc1cc(C(=O)O)ccn1` [drawing 304, 2-({[2-(methylsulfanyl)ethyl]amino}methyl)pyridine-4-carboxylic acid], for which the IC50 against JMJD2A (KDM4A) lay within 1 to 50 µM.
Regarding `CCN(CCN(C)C)C(=O)CNCc1cc(C(=O)O)ccn1` [drawing 328, 2-{[({[2-(dimethylamino)ethyl](ethyl)carbamoyl}methyl)amino]methyl}pyridine-4-carboxylic acid], the IC50 against GASC1 (KDM4C) is above 50 µM; against JMJD2A (KDM4A), 1 to 50 µM; against PLU1 (KDM5B), 1 to 50 µM.
Take `CCOC(=O)N(C)c1ccc(COC(=O)c2ccnc(CNCCCCN(CC)CC)c2)cc1` [drawing 333, {4-[(ethoxycarbonyl)(methyl)amino]phenyl}methyl 2-({[4-(diethylamino)butyl]amino}methyl)pyridine-4-carboxylate]: the IC50 on JMJD2A (KDM4A) was below 1 µM.

The record behind these values is patent US10221139B2, “Inhibitors of histone demethylases” (Gilead Sciences, Inc., priority 2012, dated 2019).
